In the supplement of paper PMC10307832:

Key:
Test in all cases: relative viability (nuclei count vs DMSO), 5 days (fraction); higher = more cells survive
A549 = tested on: A549
Procedure, shortened: (§1)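 One day after seeding in 1536-well plates, lung cancer cell lines were dosed by pin tool. Dosing was either single-drug or a fixed anchor-drug dose plus five library-drug doses (not always all listed) in √10 steps. After 5 days, nuclei were stained in one fix-and-stain step and counted on 4× images, and relative viability is the nuclei count of treated wells over that of vehicle wells, given as the median of duplicate plates.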

NCI-H1666 = tested on: NCI-H1666
Procedure, shortened: as §1

LC-2-ad = tested on: LC-2-ad
Procedure, shortened: as §1

EKVX = tested on: EKVX
Procedure, shortened: as §1

NCI-H1648 = tested on: NCI-H1648
Procedure, shortened: as §1

ChaGo-K-1 = tested on: ChaGo-K-1
Procedure, shortened: as §1

Row | Compound | relative viability (A549; first compound 0.02 µM) | relative viability (A549; first compound 0.6325 µM) | relative viability (A549; first compound 2 µM) | relative viability (NCI-H1666; first compound 0.02 µM) | relative viability (NCI-H1666; first compound 0.2 µM) | relative viability (NCI-H1666; first compound 0.6325 µM) | relative viability (NCI-H1666; first compound 2 µM) | relative viability (LC-2-ad; first compound 0.02 µM) | relative viability (LC-2-ad; first compound 0.2 µM) | relative viability (LC-2-ad; first compound 0.6325 µM) | relative viability (LC-2-ad; first compound 2 µM) | relative viability (EKVX; first compound 0.02 µM) | relative viability (EKVX; first compound 0.6325 µM) | relative viability (EKVX; first compound 2 µM) | relative viability (NCI-H1648; first compound 0.02 µM) | relative viability (NCI-H1648; first compound 0.2 µM) | relative viability (NCI-H1648; first compound 0.6325 µM) | relative viability (NCI-H1648; first compound 2 µM) | relative viability (ChaGo-K-1; first compound 0.02 µM) | relative viability (ChaGo-K-1; first compound 0.2 µM) | relative viability (ChaGo-K-1; first compound 0.6325 µM) | relative viability (ChaGo-K-1; first compound 2 µM) | relative viability (NCI-H1666; first compound 0.002 µM) | relative viability (NCI-H1666; first compound 0.006325 µM) | relative viability (NCI-H1666; first compound 0.06325 µM) | relative viability (LC-2-ad; first compound 0.002 µM) | relative viability (LC-2-ad; first compound 0.006325 µM) | relative viability (LC-2-ad; first compound 0.06325 µM) | relative viability (EKVX; first compound 0.002 µM) | relative viability (EKVX; first compound 0.006325 µM) | relative viability (EKVX; first compound 0.06325 µM) | relative viability (EKVX; first compound 0.2 µM) | relative viability (NCI-H1648; first compound 0.002 µM) | relative viability (NCI-H1648; first compound 0.006325 µM) | relative viability (NCI-H1648; first compound 0.06325 µM) | relative viability (ChaGo-K-1; first compound 0.002 µM) | relative viability (ChaGo-K-1; first compound 0.006325 µM) | relative viability (ChaGo-K-1; first compound 0.06325 µM)
1 | CN1CCN(CCOc2cc(OC3CCOCC3)c3c(Nc4c(Cl)ccc5c4OCO5)ncnc3c2)CC1 [Saracatinib] + Nc1ncn([C@H]2C[C@H](O)[C@@H](CO)O2)c(=O)n1 [Decitabine] (partner 2 µM) | 0.266 | 0.279 | 0.237 | 0.797 | 0.671 | 0.846 | 0.756 | 0.79 | 0.751 | 0.779 | 0.789 | 0.346 | 0.323 | 0.211 | 0.534 | 0.367 | 0.647 | 0.391 | 0.577 | 0.427 | 0.579 | 0.542 | – | – | – | – | – | – | – | – | – | – | – | – | – | – | – | –
2 | CCNC(=O)c1noc(-c2cc(C(C)C)c(O)cc2O)c1-c1ccc(CN2CCOCC2)cc1 [Luminespib] + Nc1nc2[nH]cc(CCc3ccc(C(=O)N[C@@H](CCC(=O)O)C(=O)O)cc3)c2c(=O)[nH]1 [Pemetrexed] (partner 0.2 µM) | – | – | – | 0.908 | 0.911 | – | – | 0.26 | 0.205 | – | – | 0.408 | – | – | 0.899 | 0.267 | – | – | 0.253 | 0.206 | – | – | 0.876 | 0.799 | 0.833 | 0.251 | 0.298 | 0.213 | 0.417 | 0.255 | 0.258 | 0.115 | 0.753 | 0.683 | 0.749 | 0.27 | 0.253 | 0.248
3 | CN1CCN(CCOc2cc(OC3CCOCC3)c3c(Nc4c(Cl)ccc5c4OCO5)ncnc3c2)CC1 [Saracatinib] + CC(=O)c1c(C)c2cnc(Nc3ccc(N4CCNCC4)cn3)nc2n(C2CCCC2)c1=O [Palbociclib] (partner 0.5 µM) | – | – | – | 0.684 | 0.474 | 0.599 | 0.651 | 0.571 | 0.448 | 0.504 | 0.434 | 0.38 | 0.306 | 0.146 | 0.252 | 0.291 | 0.304 | 0.307 | 0.896 | 0.533 | 0.92 | 0.865 | – | – | – | – | – | – | – | – | – | – | – | – | – | – | – | –
4 | CN1CCN(CCOc2cc(OC3CCOCC3)c3c(Nc4c(Cl)ccc5c4OCO5)ncnc3c2)CC1 [Saracatinib] + Nc1nc2[nH]cc(CCc3ccc(C(=O)N[C@@H](CCC(=O)O)C(=O)O)cc3)c2c(=O)[nH]1 [Pemetrexed] (partner 0.2 µM) | – | – | – | 0.877 | 0.508 | 0.878 | 0.841 | 0.286 | 0.282 | 0.268 | 0.27 | 0.429 | 0.498 | 0.369 | 0.721 | 0.766 | 1.08 | 0.415 | 0.28 | 0.254 | 0.26 | 0.269 | – | – | – | – | – | – | – | – | – | – | – | – | – | – | – | –
